Assay [1] has as its system collagen IV. As to the kind of experiment: Amount of collagen IV in normal human keratinocyte culture (ELISA), soya saponins with beta-ecdysone, 48 h. The format is cell-based. The note with it: beta-ecdysone alone, same experiment. Here is the method: (§1) The cultures of normal human keratinocytes (NHK) are grown from a surgical specimen of healthy skin. In the present study, the tests were carried out on a strain of cells, denoted by HK 44, originating from a facelift performed on a person.
The keratinocytes are cultured in K-SFM growth medium, which is a complete specific keratinocyte culture medium (SFM=serum free medium) complemented with EGF (epidermal growth factor) and pituitary extract, said medium being marketed by Gibco, France. The cells were subcultured once from the primary culture in one passage, denoted by P1.
The cells are inoculated in 96-well culture plates at a rate of 25,000 NHK per well in K-SFM. After 24 h of incubation, which is necessary for good adhesion of the cells, the inoculation medium is withdrawn and replaced with K-SFM diluted 50-fold in the same base medium, but devoid of EGF and pituitary extract. […]
The controls will receive the same amount of DMSO solvent as for the product tested at a final concentration of 0.1%.
The culture supernatants are recovered for carrying out an ELISA, as explained below.
The protocol for assaying the collagen IV by an ELISA method is adapted from that described by DUMAS M. et al. in Mechanisms of Ageing and Development, 1994, 73, pages 179-187. […]
(§2) The activity A of the product is expressed as a percentage and corresponds to the following formula: [formula] […]
(In general: ELISA stands for enzyme-linked immunosorbent assay.)

Assay [2] relates to collagen IV. As to the kind of experiment: Amount of collagen IV in normal human keratinocyte culture (ELISA), soya seed saponins, 72 h. The class given is cell-based. As to conditions: 10 ng/ml. Here is the method: A soya seed extract commercially available under the reference SOY SELECT LOT 26040/2 from the Italian company Indena is used in this Example.
According to the marketing information, this extract contains saponins of the “soya saponin” category in a proportion of 29 to 30% by dry weight, with a predominance of group B soya sapogenols.
To validate the pertinence of the chosen experimental protocol, a series of these tests was carried out with a positive control, namely transforming growth factor beta (TGF-beta), which is known to increase the amount of collagen IV in a culture of human keratinocytes. Reference may be made to the article by Köning A. and Bruckner-Tuderman L., J. Cell. Biol., May 1992, 117(3), 679-85.
as §1
The keratinocytes are cultured in K-SFM growth medium, which is a complete specific keratinocyte culture medium (SFM=serum free medium) complemented with EGF (epidermal growth factor) and pituitary extract, said medium being marketed by Gibco, France. […]
as §2

With `CC(C)(O)CC[C@@H](O)[C@](C)(O)[C@H]1CC[C@@]2(O)C3=CC(=O)[C@@H]4C[C@@H](O)[C@@H](O)C[C@]4(C)[C@H]3CC[C@]12C` [beta-ecdysone], the “increase in the amount of collagen IV” value in the assay with collagen IV [1] is listed as “No increase”.

Consider “transforming growth factor beta [TGF-beta]”, for which the “Q (ng collagen IV/100 μg proteins; at 72 h)” value in the assay with collagen IV [2] (NHK strain HK 44) was 5.615 ± 0.595 ng collagen IV/100 μg proteins. Also, in the assay on collagen IV [2] (vs DMSO control), the “A (%)” value is “+50%”.

(Values after patent publication US6641848B1, “Saponin or sapogenol compositions for increasing collagen IV synthesis” (Parfums Christian Dior, priority 1998, dated 2003).)
